The source of these data is US6933261B2, “2,4,5-Trisubstituted phenylketoenols” (Bayer Aktiengesellschaft, priority 1995, dated 2005).

Assay type in all cases: in vivo
The test system of series [1] is peach aphid (Myzus persicae). As to the kind of experiment: Myzus test. Conditions: after 6 days, active compound concentration 0.1%, dipped cabbage leaves. How it is done: (§1) Myzus Test • Solvent: 7 parts by weight of dimethylformamide • Emulsifier: 1 part by weight of alkylaryl polyglycol ether To produce a suitable preparation of active compound, 1 part by weight of active compound is mixed with the stated amount of solvent and the stated amount of emulsifier, and the concentrate is diluted with water to the desired concentration. Cabbage leaves (Brassica oleracea) which are heavily infested by the peach aphid (Myzus persicae) are treated by being dipped into the preparation of the active compound of the desired concentration. After the specified periods of time, the destruction in % is determined. 100% means that all the caterpillars have been killed; 0% means that none of the caterpillars have been killed.

Series [2] deals with caterpillars of the diamond-back moth (Plutella maculipennis). As to the kind of experiment: Plutella test. Conditions: after 7 days, active compound concentration 0.1%, dipped cabbage leaves. As to the method: as §1, with “Plutella Test •” for “Myzus Test •”, “(Brassica oleracea) are treated” for “(Brassica oleracea) which are heavily infested by the peach aphid (Myzus persicae) are treated”, “preparation of active compound” for “preparation of the active compound”, “the desired concentration and are infested with caterpillars of the diamond-back moth (Plutella maculipennis) while the leaves are still moist. After the” for “the desired concentration. After the”

Series [3] relates to caterpillars of the owlet moth (Spodoptera frugiperda). The series can be described thus: Spodoptera test. Conditions: after 7 days, active compound concentration 0.1%, dipped cabbage leaves. How it is done: as §1, with “Spodoptera Test •” for “Myzus Test •”, “(Brassica oleracea) are treated” for “(Brassica oleracea) which are heavily infested by the peach aphid (Myzus persicae) are treated”, “preparation of active compound” for “preparation of the active compound”, “the desired concentration and are infested with caterpillars of the owlet moth (Spodoptera frugiperda) while the leaves are still moist. After the” for “the desired concentration. After the”

Series [4] deals with rice green leafhopper (Nephotettix cincticeps). The series can be described thus: Nephotettix test. Conditions: after 6 days, active compound concentration 0.1%, dipped rice seedlings. As to the method:
Nephotettix Test • Solvent: 7 parts by weight of dimethylformamide • Emulsifier: 1 part by weight of alkylaryl polyglycol ether To produce a suitable preparation of active compound, 1 part by weight of active compound is mixed with the stated amount of solvent and the stated amount of emulsifier, and the concentrate is diluted with water to the desired concentration. Rice seedlings (Oryza sativa) are treated by being dipped into the preparation of active compound of the desired concentration and are infested with caterpillars of the rice green leafhopper (Nephotettix cincticeps) while the seedlings are still moist. After the specified periods of time, the destruction in % is determined. 100% means that all the caterpillars have been killed; 0% means that none of the caterpillars have been killed.

Series [5] deals with Boophilus microplus resistant/SP-resistant Parkhurst strain, adult satiated females. The series can be described thus: Test with Boophilus microplus resistant/SP-resistant Parkhurst strain. Conditions: 20 μg per animal, injected into the abdomen. How it is done:
Test with Boophilus microplus Resistant/SP-resistant Parkhurst Strain
• Test animals: Adult satiated females • Solvent: Dimethyl sulphoxide
20 mg of active compound are dissolved in 1 ml of dimethyl sulphoxide, and lower concentrations are prepared by dilution in the same solvent.
The test is carried out as a 5-fold determination. 1 μl of the solutions is injected into the abdomen and the animals are transferred to dishes and kept in a climatically controlled room. The action is determined via the inhibition of oviposition. 100% means that no tick has laid.

For series [6], the system named is All larval stages of Lucilia cuprina (OP-resistant). The series can be described thus: Test with fly larvae/development-inhibiting action. Conditions: active compound concentration 1000 ppm, read-out: action (larvicidal / development-inhibiting). How it is done:
Test with Fly Larvae/Development-Inhibiting Action
• Test animals: All larval stages of Lucilia cuprina (OP-resistant) [pupae and adults (without contact with the active compound)] • Solvent: 35 parts by weight of ethylene glycol monomethyl ether 35 parts by weight of nonylphenol polyglycol ether
To produce a suitable formulation, 3 parts by weight of active compound are mixed with seven parts of the abovementioned solvent/emulsifier mixture and the emulsion concentrate thus obtained is diluted with water to the particular desired concentration.
30 to 50 larvae per concentration are introduced onto horse-meat (1 cm^3), in glass tubes, onto which 500 μl of the dilution to be tested are pipetted. The glass tubes are placed in plastic beakers, the base of which is covered with beach sand, and are stored in a climatically controlled room (26° C.±1.5° C., 70% relative humidity±10%). The action is checked after 24 hours and 48 hours (larvicidal action). After emergence of the larvae (about 72 hours), the glass tubes are removed and perforated plastic lids are placed on the beakers. After 1½ times the development period (hatching of the control flies), the flies which have hatched and the pupae/pupae cases are counted. […]

The subject of a further series is Beta vulgaris. The series can be described thus: Pre-emergence test (crop tolerance). Conditions: 500 g/ha. How it is done: (§2) • Solvent: 5 parts by weight of acetone • Emulsifier: 1 part by weight of alkylaryl polyglycol ether
(§3) To produce a suitable preparation of active compound, 1 part by weight of active compound is mixed with the stated amount of solvent, the stated amount of emulsifier is added and the concentrate is diluted with water to the desired concentration.
(§4) Seeds of the test plants are sown in normal soil and, after 24 hours, watered with the preparation of the active compound. It is expedient to keep constant the amount of water per unit area. The concentration of the active compound in the preparation is of no importance, only the amount of active compound applied per unit area being decisive.
(§5) After three weeks, the degree of damage to the plants is rated in % damage in comparison to the development of the untreated control.
(§6) The figures denote: • 0%=no action (like untreated control) • 100%=total destruction

The next series deals with Alopecurus myosuroids. As to the kind of experiment: Pre-emergence test. Conditions: 500 g/ha, rated after three weeks vs untreated control. How it is done: as §2, §3, §4, §5, §6
Another series concerns Setaria viridis. The series can be described thus: Pre-emergence test. Conditions: 500 g/ha, rated after three weeks vs untreated control. As to the method: as §2, §3, §4, §5, §6
The next series deals with Avena fatua. The series can be described thus: Pre-emergence test. Conditions: 500 g/ha, rated after three weeks vs untreated control. As to the method:
as §2, §3, §4, §5, §6

The test system of series [7] is mustard beetle larvae (Phaedon cochleariae). The series can be described thus: Phaedon larvae test. Conditions: after 7 days, active concentration 0.1%, dipped cabbage leaves. How it is done: Phaedon Larvae Test • Solvent: 7 parts by weight of dimethylformamide • Emulsifier: 1 part by weight of alkylaryl polyglycol ether To produce a suitable preparation of active compound, 1 part by weight of active compound is mixed with the stated amount of solvent and the stated amount of emulsifier, and the concentrate is diluted with water to the desired concentration. Cabbage leaves (Brassica oleracea) are treated by being dipped into the preparation of the active compound of the desired concentration and are infested with mustard beetle larvae (Phaedon cochleariae), as long as the leaves are still moist. After the specified periods of time, the destruction in % is determined. 100% means that all the beetle larvae have been killed; 0% means that none of the beetle larvae have been killed.

As for `Cc1cc(C)c(C2=C(OC(=O)C(C)C)C3(CCC(C)CC3)NC2=O)cc1C` (single isomer, unassigned) [Example I-1-b-2], the destruction in series [1], in series [2], in series [3] and in series [4] was 100% each time.

For `COC1CCC2(CC1)NC(=O)C(c1cc(C)c(C)cc1C)=C2OC(=O)C(C)C` (single isomer, unassigned) [Example I-1-b-3], the destruction in series [1] and in series [4] was 100% throughout.

As to `COC1CCC2(CC1)NC(=O)C(c1cc(C)c(C)cc1C)=C2OC(=O)OCC(C)C` (single isomer, unassigned) [Example I-1-c-2], the destruction in [1] and in [4] was 100% in each case.

Compound `COC1CCC2(CC1)NC(=O)C(c1cc(C)c(C)cc1C)=C2OC(=O)OCC(C)C` (single isomer, unassigned) [Example I-1-c-3] gave a destruction in series [4] of 100%.

Turning to `Cc1cc(C)c(C2=C(O)C3(CCC(C)CC3)NC2=O)cc1C` (centres unmarked) [Example I-1-a-1], the destruction in series [2], in series [3] and in series [4] was 100% in each case.

As for `CC(=O)OC1=C(c2cc(C)c(C)cc2C)C(=O)NC12CCC(C)CC2` (centres unmarked) [Example I-1-b-1], the destruction in series [4] was 100%.

As to `CCOC(=O)OC1=C(c2cc(C)c(C)cc2C)C(=O)NC12CCC(C)CC2` (centres unmarked) [Example I-1-c-1], the destruction in [2] and in [4] was 100% in each case.

`Cc1cc(C)c(C2=C(O)C3(CCCCC3)OC2=O)cc1C` [Example I-2-a-1] yielded a destruction in [1] of 100%.

For `Cc1cc(C)c(C2=C(O)C3(CCC(C)CC3)OC2=O)cc1C` (centres unmarked) [Example I-2-a-2], the destruction in series [4] is listed as 100%.

Take `COC1CCC2(CC1)OC(=O)C(c1cc(C)c(C)cc1C)=C2O` (centres unmarked) [Example I-2-a-3]: in series [4], the destruction worked out at 100%.

Consider `COC1CCC2(CC1)OC(=O)C(c1cc(C)c(C)cc1C)=C2OC(=O)C(C)C` (centres unmarked) [Example I-2-b-4], for which the destruction in series [1] and in series [4] was 100% in each case.

As for `COC1CCC2(CC1)OC(=O)C(c1cc(C)c(C)cc1C)=C2OC(=O)C(C)(C)C` (centres unmarked) [Example I-2-b-5], the destruction in series [4] amounted to 100%.

As for `Cc1cc(C)c(-c2c(O)c3c(oc2=O)C(C)(C)OC3(C)C)cc1C` [Example I-4-a-1], the “action (inhibition of oviposition)” value in series [5] is 100%. In addition, the inhibition at 1000 ppm in series [6] amounted to 100%. Also, the destruction in [2] and in [3] was 100% throughout.

As to `Cc1cc(C)c(-c2c(O)c(C)c(-c3ccc(F)cc3)oc2=O)cc1C` [Example I-4-a-3], the “tolerance by crop plant” value with Beta vulgaris is on record as “good tolerance”. Besides, the destruction in series [2], in [3] and in series [4] was 100% in each case. The damage stood at 90% in the series on Alopecurus myosuroids, 95% in the series with Setaria viridis and 96% with Avena fatua.

For `Cc1cc(C)c(-c2c(O)c(C)c(-c3ccccn3)oc2=O)cc1C` [Example I-4-a-4], the destruction in series [1], in series [2], in series [3], in [7] and in [4] was 100% in each case.

As for `CC(=O)Oc1c2c(oc(=O)c1-c1cc(C)c(C)cc1C)C(C)(C)OC2(C)C` [Example I-4-b-1], the “action (inhibition of oviposition)” value in series [5] was found to be 100%. The destruction in [2], in series [3] and in [7] was 100% in each case.
